{
  "source": "patent US6413775B1",
  "about": "“Polyamine analog-activated SSAT gene therapy” (Health Research, Inc., priority 1999, dated 2002)",
  "key": {"SSAT mRNA": {"tested_on": "SSAT mRNA", "assay": "Northern blot analysis of SSAT mRNA in clone H-10 cells ±Dox treated with DENSPM", "format": "cell-based, human", "conditions": "for SSAT mRNA / SSAT Effects: mRNA (fold): 48 h; for SSAT mRNA: relative to closed untreated = 1; for SSAT Effects: mRNA (fold): DENSPM 10 μM", "method": "(§1) A MCF-7 breast carcinoma cell line stably transfected with a tetracycline-off transfection system was purchased from Clontech Laboratories Inc. (Palo Alto, Calif.). The cells were cultured in Dulbecco's Modified Eagle's Medium (DMEM; Life Technologies, Gaithersburg, Md.), supplemented with 2 mM glutamine, 10% fetal bovine serum, penicillin at 100 U/ml, streptomycin at 100 U/ml and the antibiotic G418 (Life Technologies) at 100 μg/ml at 37° C. in the presence of 5% CO2.Cells were harvested by trypsinization and counted electronically (Coulter Model ZM, Coulter Electronics, Hialeah, Fla.). During treatment with polyamines or analogs, 1 mM aminoguanidine was routinely included in the media to prevent enzymatic oxidation to toxic products.\n(§2) Total RNA was extracted with guanidine isothiocyanate and purified by the commonly used cesium chloride gradient centrifugation. Human SSAT cDNA probe (Xiao et al, 1991, supra) was used in Northern blot analyses. ODC and SSAT enzyme activities were assayed as reported earlier (Kramer et al., 1995, J. Biol. Chem. 270, 2124-2132.31). Polyamines, their acetylated derivatives and the polyamine analog DENSPM were measured by high performance liquid chromatography as previously described in detail by Kramer et al. (Kramer et al., 1993, supra), which method is incorporated herein by reference.\n(§3) To enhance the growth inhibitory effects of DENSPM, and to more definitively examine the relationship between SSAT overexpression and cell growth, a cell line was developed in which SSAT expression is conditionally regulated by doxycycline (DOX) an analog of tetracycline which penetrates cells more effectively. MCF-7 cells containing the pTet-Off plasmid were transfected with the PTRE/expression plasmids described above using the Lipofectin method (Notarangelo et al., 1997, Focus, 19, 58-59, incorporated herein by reference). To facilitate clone selection, cells were co-transfected with a pTK-Hyg vector (Clontech Laboratories, Inc.). Transfected clones resistant to […] hygromycin were selected and tested for SSAT enzyme activity and/or mRNA in the presence or absence of 200 ng/ml Dox [+Dox and −Dox, respectively (Clontech Laboratories, Inc)]. In the presence of Dox, SSAT transcription is closed; in the absence of Dox, SSAT transcription is open. […] Clones, which expressed the lowest basal levels of SSAT activity or mRNA in +Dox and the greatest induced level of SSAT activity or mRNA −Dox, were selected for further study. Clones were maintained continuously under +Dox conditions until experiments were initiated.\n(§4) In this table are presented the effects of conditional overexpression on DENSPM induced SSAT mRNA and activity and on polyamine pool depletion. When exposed to 10 μM DENSPM for 24 h, MRNA levels increased by 4-fold in induced cells and remained at ^˜20-fold in uninduced cells. Presumably, some rate-limiting step prevented DENSPM from increasing MRNA beyond the already high levels in these cells."}, "[1]": {"tested_on": "spermidine-spermine N^1-acetyltransferase (SSAT)", "assay": "SSAT enzyme activity in clone H-10 cells ±Dox treated with DENSPM", "format": "cell-based, human", "conditions": "for increase in SSAT activity: 10 μM DENSPM; for DENSPM-induced SSAT activity: cells transfected with human SSAT cDNA; for SSAT Activity / SSAT Effects: Activity (fold): 48 h; for SSAT Activity: relative to closed untreated = 1; for SSAT Effects: Activity (fold): DENSPM 10 μM", "method": "as §1, §2, §3, §4"}, "[2]": {"tested_on": "Polyamine pools in H-10 cells", "assay": "Polyamine pools by HPLC in H-10 cells ±Dox treated with DENSPM", "format": "cell-based, human", "conditions": "for Polyamine Pools: AcSpd / Polyamine Pools: AcSpm / Polyamine Pools: Put / Polyamine Pools: Spd / Polyamine Pools: Spm: 48 h", "method": "as §1, §2, §4"}, "[3]": {"tested_on": "MCF-7/hSc clone H-10 cells", "assay": "Growth inhibition and dose-response of clone H-10 cells (MCF-7/hSc) ±Dox by DENSPM", "format": "cell-based, human", "conditions": "for growth inhibition: by 48 h; for Growth Effects: Onset of cytotoxicity: DENSPM 10 μM", "method": "as §1\n(§5) Relative growth inhibition by DENSPM. The relative antiproliferative effect exerted by DENSPM in H-10 and M-3 cells grown ±Dox was studied over an extended (8 d) time period. As shown in the FIG. 9, H-10-Dox cells were strikingly more sensitive to the antiproliferative action of the DENSPM than +Dox cells. Less than 15% growth inhibition was achieved by 48 h in +Dox H-10 cells compared to >80% in −Dox cells (FIG. 9). […] As a generality, DENSPM-mediated growth inhibition tended to be more cytotoxic during SSAT induction as indicated by the rapid loss in cell number (FIG. 9).\nThe increased sensitivity of SSAT induced H-10 cells to DENSPM was quantitated by dose-response analysis. Cells were grown for 48 h ±Dox and then exposed to increasing concentrations of DENSPM for 48 h (FIG. 10). In the IC50 comparisons, −Dox cells were about approximately 100-fold more sensitive to DENSPM than +Dox cells (i.e. comparing IC50 values of 0.2 and 20 μM, respectively)."}, "[4]": {"tested_on": "MCF-7/mSg clone M-3 cells", "assay": "Growth inhibition of clone M-3 cells (MCF-7/mSg) ±Dox by DENSPM", "format": "cell-based, human", "method": "as §1, §5"}, "[5]": {"tested_on": "ornithine decarboxylase (ODC)", "assay": "ODC enzyme activity in H-10 cells treated with DENSPM", "format": "cell-based, human", "conditions": "both +Dox and -Dox cells, irrespective of SSAT induction", "method": "as §1\nTotal RNA was extracted with guanidine isothiocyanate and purified by the commonly used cesium chloride gradient centrifugation. Human SSAT cDNA probe (Xiao et al, 1991, supra) was used in Northern blot analyses. ODC and SSAT enzyme activities were assayed as reported earlier (Kramer et al., 1995, J. Biol. Chem. 270, 2124-2132.31). Polyamines, their acetylated derivatives and the polyamine analog DENSPM were measured by high performance liquid chromatography as previously described in detail by Kramer et al. (Kramer et al., 1993, supra), which method is incorporated herein by reference. […]"}, "[6]": {"tested_on": "spermidine-spermine N^1-acetyltransferase (SSAT)", "conditions": "in many tumor cells; cited from earlier work"}},
  "note": "Read-outs that look alike come from different tables or passages of the source.",
  "data": [
    {"smiles": "CCNCCCNCCCNCCCNCC", "note": "[DENSPM, N^1, N^11diethylnorspermine]", "values": [
      {"measurement": "SSAT mRNA levels increase", "setting": "SSAT mRNA; 10 μM DENSPM for 24 h, 'induced cells' as printed", "value": 4, "unit": "fold"},
      {"measurement": "SSAT mRNA levels", "setting": "SSAT mRNA; 10 μM DENSPM for 24 h, 'uninduced cells' as printed", "value": "~20", "unit": "fold"},
      {"measurement": "SSAT mRNA", "setting": "SSAT mRNA; Closed (+Dox) +DENSPM", "value": 8, "unit": "X"},
      {"measurement": "SSAT Effects: mRNA (fold)", "setting": "SSAT mRNA; Closed (Dox 200 ng/ml)", "value": 8, "unit": "X fold"},
      {"measurement": "SSAT mRNA", "setting": "SSAT mRNA; Open (-Dox) +DENSPM", "value": 20, "unit": "X"},
      {"measurement": "SSAT Effects: mRNA (fold)", "setting": "SSAT mRNA; Open (no Dox)", "value": 20, "unit": "X fold"},
      {"measurement": "increase in SSAT activity", "setting": "[1]; +Dox cells", "value": "> 80", "unit": "fold"},
      {"measurement": "DENSPM-induced SSAT activity", "setting": "[1]; +Dox conditions (closed)", "value": "~90", "unit": "fold"},
      {"measurement": "increase in SSAT activity", "setting": "[1]; -Dox cells", "value": "> 1500", "unit": "fold"},
      {"measurement": "DENSPM-induced SSAT activity", "setting": "[1]; -Dox conditions (open)", "value": 1700, "unit": "fold"},
      {"measurement": "SSAT Activity", "setting": "[1]; Closed (+Dox) +DENSPM", "value": 89, "unit": "X"},
      {"measurement": "SSAT Effects: Activity (fold)", "setting": "[1]; Closed (Dox 200 ng/ml)", "value": 89, "unit": "X fold"},
      {"measurement": "SSAT Activity", "setting": "[1]; Open (-Dox) +DENSPM", "value": "1,700 X"},
      {"measurement": "SSAT Effects: Activity (fold)", "setting": "[1]; Open (no Dox)", "value": 1700, "unit": "X fold"},
      {"measurement": "difference in SSAT activity with DENSPM treatment, open vs closed", "setting": "[1]; from Table 3", "value": "about 20 fold"},
      {"measurement": "Polyamine Pools: AcSpd", "setting": "[2]; Closed (+Dox) +DENSPM", "value": 20, "unit": "pmol/10^6 cells"},
      {"measurement": "Polyamine Pools: AcSpm", "setting": "[2]; Closed (+Dox) +DENSPM", "value": 50, "unit": "pmol/10^6 cells"},
      {"measurement": "Polyamine Pools: Put", "setting": "[2]; Closed (+Dox) +DENSPM", "value": 50, "unit": "pmol/10^6 cells"},
      {"measurement": "Polyamine Pools: Spd", "setting": "[2]; Closed (+Dox) +DENSPM", "value": 110, "unit": "pmol/10^6 cells"},
      {"measurement": "Polyamine Pools: Spm", "setting": "[2]; Closed (+Dox) +DENSPM", "value": 750, "unit": "pmol/10^6 cells"},
      {"measurement": "Polyamine Pools: AcSpd", "setting": "[2]; Open (-Dox) +DENSPM", "value": "<5", "unit": "pmol/10^6 cells"},
      {"measurement": "Polyamine Pools: AcSpm", "setting": "[2]; Open (-Dox) +DENSPM", "value": 20, "unit": "pmol/10^6 cells"},
      {"measurement": "Polyamine Pools: Put", "setting": "[2]; Open (-Dox) +DENSPM", "value": "<5", "unit": "pmol/10^6 cells"},
      {"measurement": "Polyamine Pools: Spd", "setting": "[2]; Open (-Dox) +DENSPM", "value": "<5", "unit": "pmol/10^6 cells"},
      {"measurement": "Polyamine Pools: Spm", "setting": "[2]; Open (-Dox) +DENSPM", "value": 65, "unit": "pmol/10^6 cells"},
      {"measurement": "depletion of all three polyamines", "setting": "[2]; by 48 h, both +Dox and -Dox cells", "value": "near total depletion"},
      {"measurement": "growth inhibition", "setting": "[3]; +Dox H-10 cells", "value": "Less than 15%"},
      {"measurement": "IC50", "setting": "[3]; +Dox H-10 cells, grown 48 h ±Dox, then DENSPM 48 h, read-out: IC50 of DENSPM (growth)", "value": 20, "unit": "µM"},
      {"measurement": "growth inhibition", "setting": "[3]; -Dox H-10 cells", "value": "> 80", "unit": "%"},
      {"measurement": "IC50", "setting": "[3]; -Dox H-10 cells, grown 48 h ±Dox, then DENSPM 48 h, read-out: IC50 of DENSPM (growth)", "value": 0.2, "unit": "µM"},
      {"measurement": "IC50", "setting": "[3]; Closed (Dox 200 ng/ml), 48 h, read-out: Growth Effects: IC50 Dose", "value": 200, "unit": "µM"},
      {"measurement": "Growth Effects: Onset of cytotoxicity", "setting": "[3]; Closed (Dox 200 ng/ml)", "value": 4, "unit": "days"},
      {"measurement": "Growth Effects: Onset of cytotoxicity", "setting": "[3]; Open (no Dox)", "value": "immediate"},
      {"measurement": "growth inhibition", "setting": "[4]; induced M-3 cells", "value": 78, "unit": "%"},
      {"measurement": "growth inhibition", "setting": "[4]; uninduced M-3 cells", "value": 25, "unit": "%"},
      {"measurement": "effect on ODC activity", "setting": "[5]", "value": "suppressed ODC activity"},
      {"measurement": "induction of SSAT activity", "setting": "[6]", "value": "exceed 1000 fold"}
    ]}
  ]
}
